Experiments:
[1] = system: Aβ40 in conditioned medium of cells expressing amyloid precursor protein; test: In vitro BACE cell-based assay (HEK cell assay, Aβ40 sandwich ELISA); settings: Homo sapiens, HEK293; average IC50; Aβ40 after 24 h incubation
BACE1 = BACE1 (Homo sapiens, UniProt P56817); test: In vitro enzymatic BACE FRET assay; assay type: biochemical
Method: In Vitro Enzymatic BACE FRET (fluorescence resonance energy transfer) Assay (Enzyme Assay data in the Example Table I)
The assay buffer used in this screen is 0.05 M acetate, pH 4.2, 10% DMSO final, 100 uM genapol (which is a nonionic detergent, below its Critical Micelle Concentration). […] This assay is effectively started by the addition of FRET substrate (50 nM) and the combination is incubated for one hour. The FRET assay is terminated with by addition of Tris buffer, which raises the pH to neutrality, and the fluorescence is determined. The FRET substrate is a peptide with commercially available fluorophore and quencher, on opposite sides of the BACE cleavage site. Proteolytic cleavage of the FRET substrate releases quenching of fluorescence (excitation […] and […]).

Sequence of BACE1 (P56817 46-501): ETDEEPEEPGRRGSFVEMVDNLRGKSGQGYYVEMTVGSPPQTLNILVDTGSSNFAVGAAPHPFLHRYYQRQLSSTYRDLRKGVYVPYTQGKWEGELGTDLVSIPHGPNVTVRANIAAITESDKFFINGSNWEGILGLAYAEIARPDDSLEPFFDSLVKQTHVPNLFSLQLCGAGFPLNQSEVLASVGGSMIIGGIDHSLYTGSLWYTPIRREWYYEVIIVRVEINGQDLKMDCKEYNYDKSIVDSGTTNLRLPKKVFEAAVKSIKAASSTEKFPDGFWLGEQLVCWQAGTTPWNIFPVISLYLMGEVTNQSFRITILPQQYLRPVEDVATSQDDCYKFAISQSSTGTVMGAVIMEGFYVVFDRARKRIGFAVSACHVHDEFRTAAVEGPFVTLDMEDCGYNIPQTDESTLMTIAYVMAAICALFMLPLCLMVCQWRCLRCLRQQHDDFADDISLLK

NC1=NC2(c3cc(-c4cccnc4F)ccc3Oc3c2cc(-c2ccnc(F)c2)nc3F)c2ccccc21 (racemic) [Example 5e, 1-fluoro-7-(2-fluoropyridin-3-yl)-3-(2-fluoropyridin-4-yl)spiro[chromeno[2,3-c]pyridine-5,1′-isoindol]-3′-amine]
IC50 [1]: 8 nM
IC50 (BACE1): 1 nM

NC1=NC2(c3cc(-c4cccnc4F)ccc3Oc3c2cc(C2=CCOCC2)nc3F)c2ccccc21 (racemic) [Example 6, 3-(3,6-dihydro-2H-pyran-4-yl)-1-fluoro-7-(2-fluoropyridin-3-yl)spiro[chromeno[2,3-c]pyridine-5,1′-isoindol]-3′-amine]
IC50 [1]: 3 nM
IC50 (BACE1): 1 nM

NC1=NC2(c3cc(-c4cccnc4F)ccc3Oc3c2cc(C2=CCCOC2)nc3F)c2ccccc21 (racemic) [Example 7, 3-(5,6-dihydro-2H-pyran-3-yl)-1-fluoro-7-(2-fluoropyridin-3-yl)spiro[chromeno[2,3-c]pyridine-5,1′-isoindol]-3′-amine]
IC50 [1]: 13 nM
IC50 (BACE1): 1 nM

NC1=NC2(c3cc(-c4cccnc4F)ccc3Oc3c2cc(N2CCOCC2)nc3F)c2ccccc21 (racemic) [Example 8, 1-fluoro-7-(2-fluoropyridin-3-yl)-3-morpholinospiro[chromeno[2,3-c]pyridine-5,1′-isoindol]-3′-amine]
IC50 [1]: 14 nM
IC50 (BACE1): 4.2 nM

NC1=NC2(c3cc(-c4cccnc4F)ccc3Oc3c2cc(N2CCC(F)(F)C2)nc3F)c2ccccc21 (racemic) [Example 9, 3-(3,3-difluoropyrrolidin-1-yl)-1-fluoro-7-(2-fluoropyridin-3-yl)spiro[chromeno[2,3-c]pyridine-5,1′-isoindol]-3′-amine]
IC50 [1]: 27 nM
IC50 (BACE1): 5.3 nM

NC1=NC2(c3cc(-c4cccnc4F)ccc3Oc3cnc(-c4ccnc(F)c4)cc32)c2ccccc21 (racemic) [Example 10, 7-(2-fluoropyridin-3-yl)-3-(2-fluoropyridin-4-yl)spiro[chromeno[2,3-c]pyridine-5,1′-isoindol]-3′-amine]
IC50 [1]: 12 nM
IC50 (BACE1): 1 nM

NC1=NC2(c3cc(Br)ccc3Oc3cnc(Cl)cc32)c2ccccc21 (racemic) [Example 10c, 7-bromo-3-chlorospiro[chromeno[2,3-c]pyridine-5,1′-isoindol]-3′-amine]
IC50 [1]: 64.5 nM
IC50 (BACE1): 6940 nM

NC1=NC2(c3cc(-c4cccnc4F)ccc3Oc3cnc(Cl)cc32)c2ccccc21 (racemic) [Example 10d, 3-chloro-7-(2-fluoropyridin-3-yl)spiro[chromeno[2,3-c]pyridine-5,1′-isoindol]-3′-amine]
IC50 [1]: 140 nM
IC50 (BACE1): 36 nM

NC1=NC2(c3cc(-c4cccnc4F)ccc3Oc3cnc(C4=CCOCC4)cc32)c2ccccc21 (racemic) [Example 11, 3-(3,6-dihydro-2H-pyran-4-yl)-7-(2-fluoropyridin-3-yl)spiro[chromeno[2,3-c]pyridine-5,1′-isoindol]-3′-amine]
IC50 [1]: 12 nM
IC50 (BACE1): 3 nM

NC1=NC2(c3cc(-c4cccnc4F)ccc3Oc3cnc(C4CCOCC4)cc32)c2ccccc21 (racemic) [Example 12, 7-(2-fluoropyridin-3-yl)-3-(tetrahydro-2H-pyran-4-yl)spiro[chromeno[2,3-c]pyridine-5,1′-isoindol]-3′-amine]
IC50 [1]: 13 nM
IC50 (BACE1): 4 nM

CC(C)(C)C#Cc1cc2c(cn1)Oc1ccc(-c3cccnc3F)cc1C21N=C(N)c2ccccc21 (racemic) [Example 13, 3-(3,3-dimethylbut-1-ynyl)-7-(2-fluoropyridin-3-yl)spiro[chromeno[2,3-c]pyridine-5,1′-isoindol]-3′-amine]
IC50 [1]: 70 nM
IC50 (BACE1): 6 nM

NC1=NC2(c3cc(-c4cccnc4F)ccc3Oc3c2cc(-c2ccnc(F)c2)nc3F)c2ncccc21 (racemic) [Example 15, 1-fluoro-7-(2-fluoropyridin-3-yl)-3-(2-fluoropyridin-4-yl)spiro[chromeno[2,3-c]pyridine-5,7′-pyrrolo[3,4-b]pyridin]-5′-amine]
IC50 [1]: 11 nM
IC50 (BACE1): 1 nM

NC1=NC2(c3ccccc3O1)c1cc(-c3cccnc3F)ccc1Oc1cnc(C3=CCCOC3)cc12 (racemic) [Example 18, 3′-(5,6-dihydro-2H-pyran-3-yl)-7′-(2-fluoropyridin-3-yl)spiro[benzo[e][1,3]oxazine-4,5′-chromeno[2,3-c]pyridin]-2-amine]
IC50 [1]: 122 nM
IC50 (BACE1): 2 nM

NC1=NC2(c3cc(-c4cccnc4F)ccc3Oc3cnc(Cl)cc32)c2ncccc2O1 (racemic) [Example 21, 3-chloro-7-(2-fluoropyridin-3-yl)spiro[chromeno[2,3-c]pyridine-5,4′-pyrido[2,3-e][1,3]oxazin]-2′-amine]
IC50 [1]: > 10000 nM
IC50 (BACE1): 370 nM

NC1=NC2(c3cc(-c4cccnc4F)ccc3Oc3cnc(-c4ccnc(F)c4)cc32)c2cccnc2O1 (racemic) [Example 24, 7-(2-fluoropyridin-3-yl)-3-(2-fluoropyridin-4-yl)spiro[chromeno[2,3-c]pyridine-5,4-pyrido[3,2-e][1,3]oxazin]-2′-amine]
IC50 [1]: 320 nM
IC50 (BACE1): 1.8 nM

NC1=N[C@@]2(c3cc(-c4cccnc4F)ccc3Oc3c2cc(-c2ccnc(F)c2)nc3F)c2ccccc21 (single isomer, unassigned) [Example 5-A]
IC50 [1]: 1860 nM
IC50 (BACE1): 18.2 nM

NC1=N[C@]2(c3cc(-c4cccnc4F)ccc3Oc3c2cc(-c2ccnc(F)c2)nc3F)c2ccccc21 (single isomer, unassigned) [Example 5-B]
IC50 [1]: 11 nM
IC50 (BACE1): 0.6 nM

NC1=N[C@@]2(c3cc(-c4cccnc4F)ccc3Oc3c2cc(C2=CCCOC2)nc3F)c2ccccc21 (single isomer, unassigned) [Example 7-A]
IC50 [1]: 336 nM
IC50 (BACE1): 78 nM

NC1=N[C@]2(c3cc(-c4cccnc4F)ccc3Oc3cnc(-c4cccnc4F)cc32)c2ccccc21 (single isomer, unassigned) [Example 10-C]
IC50 [1]: > 10000 nM
IC50 (BACE1): 900 nM

NC1=N[C@@]2(c3cc(-c4cccnc4F)ccc3Oc3cnc(-c4cccnc4F)cc32)c2ccccc21 (single isomer, unassigned) [Example 10-D]
IC50 [1]: > 10000 nM
IC50 (BACE1): > 10000 nM

NC1=N[C@]2(c3cc(-c4cccnc4F)ccc3Oc3c2cc(-c2ccnc(F)c2)nc3F)c2cnccc21 (single isomer, unassigned) [Example 14-A]
IC50 [1]: 8 nM
IC50 (BACE1): 0.4 nM

NC1=N[C@@]2(c3cc(-c4cccnc4F)ccc3Oc3c2cc(-c2ccnc(F)c2)nc3F)c2cnccc21 (single isomer, unassigned) [Example 14-B]
IC50 [1]: 2460 nM
IC50 (BACE1): 107 nM

NC1=N[C@@]2(c3cc(Br)ccc3Oc3c2cc(Cl)nc3F)c2cnccc21 (single isomer, unassigned) [Example 14c-1]
IC50 [1]: > 10000 nM
IC50 (BACE1): > 10000 nM

NC1=N[C@]2(c3cc(Br)ccc3Oc3c2cc(Cl)nc3F)c2cnccc21 (single isomer, unassigned) [Example 14c-2]
IC50 [1]: > 10000 nM
IC50 (BACE1): 3440 nM

NC1=N[C@@]2(c3cc(Br)ccc3Oc3c2cc(Cl)nc3F)c2cccnc21 (single isomer, unassigned) [Example 17c-1]
IC50 [1]: > 10000 nM
IC50 (BACE1): > 10000 nM

NC1=NC2(c3ccccc3O1)c1cc(-c3cccnc3F)ccc1Oc1cnc(-c3ccnc(F)c3)cc12 (stereo not drawn) [Example 19, 7′-(2-fluoropyridin-3-yl)-3′-(2-fluoropyridin-4-yl)spiro[benzo[e][1,3]oxazine-4,5′-chromeno[2,3-c]pyridin]-2-amine]
IC50 (BACE1): 2 nM

— patent publication US8921363B2, “Derivatives of 1 H-isoindol-3-amine, 1 H-iso-aza-indol-3amine, 3,4-dihydroisoquinolin-1-amine, and 1,4-dihydroisoquinolin-3-amine as beta-secretase inhibitors” (Amgen Inc., priority 2010, dated 2014)
